Assay results published in ChEMBL document CHEMBL1201862, “PubChem BioAssay data set” (2004).
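A five-concentration, 48-hour dose response in 96-well plates underlies each endpoint, interpolated linearly between surrounding concentrations. At the GI50, growth is halved.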 Activity calls are given as the source filed them. No stated cut-off is given here; in the data, active = GI50 up to about 1.1 µM and inactive = higher.

Assays:
Test in all cases: NCI tumour cell line growth inhibition, 48 h
MOLT-4 = tested on: MOLT-4
SF-539 = tested on: SF-539
SW-620 = tested on: SW-620
UO-31 = tested on: UO-31
SN12C = tested on: SN12C
SNB-75 = tested on: SNB-75
HL-60 = tested on: HL-60
SF-295 = tested on: SF-295
NCI-H460 = tested on: NCI-H460
SR = tested on: SR
CCRF-CEM = tested on: CCRF-CEM
U-251 = tested on: U-251
Malme-3M = tested on: Malme-3M
DU-145 = tested on: DU-145
SF-268 = tested on: SF-268
MDA-MB-231 = tested on: MDA-MB-231
HOP-92 = tested on: HOP-92
NCI-H522 = tested on: NCI-H522
MCF7 = tested on: MCF7

Row | Compound | GI50 (MOLT-4) | GI50 (SF-539) | GI50 (SW-620) | GI50 (UO-31) | GI50 (SN12C) | GI50 (SNB-75) | GI50 (HL-60) | GI50 (SF-295) | GI50 (NCI-H460) | GI50 (SR) | GI50 (CCRF-CEM) | GI50 (U-251) | GI50 (Malme-3M) | GI50 (DU-145) | GI50 (SF-268) | GI50 (MDA-MB-231) | GI50 (HOP-92) | GI50 (NCI-H522) | GI50 (MCF7)
1 | COc1cc(C(O)C(=O)c2cnc3cc([N+](=O)[O-])ccc3n2)ccc1O (centres undefined) | > 100 µM (inactive) | > 100 µM (inactive) | > 100 µM (inactive) | > 100 µM (inactive) | > 100 µM (inactive) | > 100 µM (inactive) | 86.5 µM (inactive) | > 100 µM (inactive) | > 100 µM (inactive) | > 100 µM (inactive) | > 100 µM (inactive) | > 100 µM (inactive) | > 100 µM (inactive) |  |  |  |  |  | 
2 | CCSC1=N/C(=C\c2ccco2)C(NN)=N1 | > 50 µM (inactive) | > 50 µM (inactive) | > 50 µM (inactive) | > 50 µM (inactive) | > 50 µM (inactive) | > 50 µM (inactive) | > 50 µM (inactive) | > 50 µM (inactive) | > 50 µM (inactive) |  | > 50 µM (inactive) | > 50 µM (inactive) | > 50 µM (inactive) | > 50 µM (inactive) | > 50 µM (inactive) | > 50 µM (inactive) | > 50 µM (inactive) | > 50 µM (inactive) | 
3 | Cc1cc2c(cc1C)[n+]([O-])c(NCCCN(C)C)c(C#N)[n+]2[O-] | 22.7 µM (inactive) | > 100 µM (inactive) | > 100 µM (inactive) | > 100 µM (inactive) | 82.4 µM (inactive) | 85.7 µM (inactive) | 45.3 µM (inactive) | 42 µM (inactive) | 26.2 µM (inactive) | 13.2 µM (inactive) | 57.3 µM (inactive) | > 100 µM (inactive) | 95.1 µM (inactive) |  | > 100 µM (inactive) |  | > 100 µM (inactive) | 57.4 µM (inactive) | > 100 µM (inactive)
4 | NC(Cc1ccc(S(=O)(=O)O)cc1)C(=O)NC(Cc1ccc(S(=O)(=O)O)cc1)C(=O)NC(Cc1ccc(S(=O)(=O)O)cc1)C(=O)O (centres undefined) | > 100 µM (inactive) | > 100 µM (inactive) | > 100 µM (inactive) | > 100 µM (inactive) | > 100 µM (inactive) | > 100 µM (inactive) | > 100 µM (inactive) | > 100 µM (inactive) | > 100 µM (inactive) |  | > 100 µM (inactive) | > 100 µM (inactive) | > 100 µM (inactive) | > 100 µM (inactive) | > 100 µM (inactive) | > 100 µM (inactive) |  | > 100 µM (inactive) | > 100 µM (inactive)
5 | C/C=C/C=C\C1OC(O)([C@H](CC)C(=O)NC/C=C/C=C(\C)[C@H](OC)C(C)C2OC(\C=C/C=C/C=C(\C)C(=O)c3c(O)ccn(C)c3=O)[C@H](O)[C@@H]2O)C(O)C(O)C1(C)C (some centres undefined) | 41.9 µM (inactive) | > 100 µM (inactive) | > 100 µM (inactive) | > 100 µM (inactive) | 75.3 µM (inactive) | > 100 µM (inactive) | 54.3 µM (inactive) | > 100 µM (inactive) | > 100 µM (inactive) |  | 38.4 µM (inactive) | > 100 µM (inactive) |  | > 100 µM (inactive) | > 100 µM (inactive) | > 100 µM (inactive) | > 100 µM (inactive) | > 100 µM (inactive) | > 100 µM (inactive)
6 | COC1=CC(=O)c2c(CCNC(=O)OCc3ccccc3)n[nH]c2C1=O | 16.8 µM (inactive) | 17.9 µM (inactive) | 19.5 µM (inactive) | 14.6 µM (inactive) | 13.8 µM (inactive) |  | 16.1 µM (inactive) | 20.6 µM (inactive) | 15.3 µM (inactive) | 19.1 µM (inactive) |  | 13.2 µM (inactive) | 1.76 µM (inactive) |  |  | 17.3 µM (inactive) |  | 7.78 µM (inactive) | 8.07 µM (inactive)
7 | O=c1cccc2n1CC1CNC[C@H]2C1 [CYTISINICLINE] | > 100 µM (inactive) |  | > 100 µM (inactive) | > 100 µM (inactive) | > 100 µM (inactive) | > 100 µM (inactive) |  | > 100 µM (inactive) | > 100 µM (inactive) |  | > 100 µM (inactive) | > 100 µM (inactive) | > 100 µM (inactive) | > 100 µM (inactive) | > 100 µM (inactive) | > 100 µM (inactive) | > 100 µM (inactive) | > 100 µM (inactive) | > 100 µM (inactive)
8 | C=C(C)[C@@H]1CCC2=C(CC[C@]3(C)[C@@H]([C@@H](CCC=C(C)C)C(=O)O)[C@H](O)C[C@@]23C)[C@@]1(C)CCC(=O)O [PORICOIC ACID G] | > 100 µM (inactive) | 59.3 µM (inactive) | > 100 µM (inactive) | > 100 µM (inactive) | 52.4 µM (inactive) | 60.5 µM (inactive) | 0.0393 µM (active) | 50.4 µM (inactive) | 46.8 µM (inactive) | 29.4 µM (inactive) | 63.2 µM (inactive) | 22.4 µM (inactive) | > 100 µM (inactive) | > 100 µM (inactive) | 94.8 µM (inactive) | > 100 µM (inactive) | 32.1 µM (inactive) | 44.2 µM (inactive) | 
